Reference: patent US10703746B2, “Mutant IDH1 inhibitors useful for treating cancer” (THE UNITED STATES OF AMERICA, AS REPRESENTED BY THE …, priority 2014, dated 2020)

What was measured:
IDH1 R132H = IDH1 R132H (Homo sapiens, UniProt O75874, R132H); experiment: IDH1 R132H enzymatic assay (NADPH depletion coupled to diaphorase/resazurin); type: biochemical
Experimental: (§1) Assays were conducted in a 1536-well black solid-bottom plate with a final assay volume of 9 μL.
Specifically, for IDH1 R132H, 3 μL of enzyme (4 mM β-ME, 0.0005 mg/mL IDH1 R132H, 150 mM NaCl, 20 mM Tris pH 7.5, 10 mM MgCl2, 0.05% BSA) were added to the plate, followed by the addition of 23 nL of test compound in DMSO. The plate was lidded and incubated at room temperature for 30 minutes at which time 3 μL of substrate were added (0.016 mM NADPH, 2 mM α-KG, 150 mM NaCl, 20 mM Tris pH 7.5, 10 mM MgCl2, 0.05% BSA). This reaction was incubated at room-temperature for 60 minutes at which time the detection mix was added (0.06 mg/mL diaphorase, 0.036 mM resazurin, 150 mM NaCl, 20 mM Tris pH 7.5, 10 mM MgCl2, 0.05% BSA). […]

IDH1 R132C = IDH1 R132C (Homo sapiens, UniProt O75874, R132C); experiment: IDH1 R132C enzymatic assay (NADPH depletion coupled to diaphorase/resazurin); type: biochemical
Chain of IDH1 R132C (O75874 whole entry R132C): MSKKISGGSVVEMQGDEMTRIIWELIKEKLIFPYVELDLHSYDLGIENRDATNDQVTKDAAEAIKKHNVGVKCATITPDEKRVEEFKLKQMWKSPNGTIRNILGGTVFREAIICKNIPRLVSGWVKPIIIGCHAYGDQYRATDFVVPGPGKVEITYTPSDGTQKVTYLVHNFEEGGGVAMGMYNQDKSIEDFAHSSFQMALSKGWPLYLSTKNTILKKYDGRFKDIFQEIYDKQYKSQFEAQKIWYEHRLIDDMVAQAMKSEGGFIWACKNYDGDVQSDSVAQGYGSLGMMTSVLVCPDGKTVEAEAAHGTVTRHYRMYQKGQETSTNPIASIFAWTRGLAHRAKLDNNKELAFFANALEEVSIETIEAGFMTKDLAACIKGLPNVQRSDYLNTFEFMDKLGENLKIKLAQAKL
Experimental: as §1
For IDH1 R132C, 3 μL of enzyme (0.00032 mg/mL IDH1 […], 10% glycerol, 50 mM potassium phosphate pH 6.5, 5 mM MgCl2, 0.03% BSA) were added to the plate, followed by the addition of 23 nL of test compound in DMSO. The plate was lidded and incubated at room temperature for 30 minutes at which time 3 μL of substrate were added (0.012 mM NADPH, 0.6 mM α-KG, 10% glycerol, 50 mM potassium phosphate pH 6.5, 5 mM MgCl2, 0.03% BSA). […]

[1] = IDH1 R132H enzymatic inhibition, IC50 class
[2] = IDH1 R132C enzymatic inhibition, IC50 class
[3] = enzymatic inhibition, IDH1 R132H
[4] = enzymatic inhibition, IDH1 R132C

Chain of IDH1 R132H (O75874 whole entry R132H): as the sequence (O75874 whole entry R132C) above, with C132H counted along it

Row | IC50 (IDH1 R132H; [1]) [µM] | IC50 (IDH1 R132C; [2]) [µM] | IC50 (IDH1 R132H; [3]) [µM] | IC50 (IDH1 R132C; [4]) [µM] | SMILES
1 | < 0.3 | < 0.3 | – | – | CCc1cccc(CC)c1-n1c(C=C(C)C)c(C(=O)N2C(C)CNCC2C(=O)O)cc(-c2nc(-c3ccc(Cl)cc3)cs2)c1=O (stereo not drawn) [Compound 660]
2 | – | – | 0.3 to 1 | < 0.3 | CCc1cccc(CC)c1-n1c(C=C(C)C)c(C(=O)N2CCNCC23COC3)cc(-c2nc(-c3ccc(Cl)cc3)cs2)c1=O [Compound 443]
3 | 0.3 to 1 | < 0.3 | – | – | CCc1cccc(CC)c1N1C(=O)C(c2nc(-c3ccc(Cl)cc3)cs2)CC(C(=O)N2CCNCC2)=C1CC(C)C (stereo not drawn) [Compound 356]
4 | – | – | < 0.3 | < 0.3 | CCc1ccc(Cl)c(CC)c1-n1c2c(cc(-c3nc(-c4ccc(Cl)cc4)cs3)c1=O)C(=O)CC(C)(C)C2 [Compound 548]
5 | 1 to 5 | 0.3 to 1 | – | – | CCSc1ccccc1-n1c2c(cc(-c3nc(-c4ccc(Cl)cc4)cs3)c1=O)C(=O)CC(C)(C)C2 [Compound 134]
6 | < 0.3 | < 0.3 | – | – | CCc1ccc(F)cc1-n1c(C=C(C)C)c(C(=O)N2CCNCC2)cc(-c2nc(-c3ccc(C(F)F)cc3)cs2)c1=O [Compound 379]
7 | < 0.3 | < 0.3 | – | – | CCc1cccc(CC)c1-n1c(CC(C)C)c(C(=O)N2CCNCC2)cc(-c2nc(-c3ccc(F)cc3)c(C)s2)c1=O [Compound 181]
8 | 1 to 5 | 1 to 5 | – | – | COc1ccc(OC)c(-n2c3c(cc(-c4nc(-c5ccccc5)cs4)c2=O)C(=O)CC(C)(C)C3)c1 [Compound 225]
9 | 0.3 to 1 | < 0.3 | – | – | CCc1cccc(CC)c1-n1c(CC(C)C)c(C(=O)N2CCNC(C)C2)cc(-c2nc(-c3ccc(Cl)cc3)cs2)c1=O (stereo not drawn) [Compound 305]
10 | 5 to 20 | 5 to 20 | – | – | CCc1cccc(CC)c1-n1c(CC2CCNCC2)c(C(=O)NC)cc(-c2nc(-c3ccc(Cl)cc3)cs2)c1=O [Compound 365]
11 | 1 to 5 | 1 to 5 | – | – | CCc1cccc(CC)c1-n1c(C(C)C)c(C(=O)NC2CCNCC2)cc(-c2nc(-c3ccc(Cl)cc3)cs2)c1=O [Compound 35]
12 | – | – | < 0.3 | < 0.3 | CCc1cccc(CC)c1-n1c(CC(C)C)c(C(=O)N2CCNCC2)cc(-c2nc(-c3ccc(Cl)c(F)c3)c(C)s2)c1=O [Compound 608]
13 | 1 to 5 | 0.3 to 1 | – | – | CC1(C)CC(=O)c2cc(-c3nc(-c4ccc(Cl)cc4)cs3)c(=O)n(-c3ccccc3-c3ccccc3)c2C1 [Compound 295]
14 | 1 to 5 | 0.3 to 1 | – | – | CCc1cccc(CC)c1-n1c(CC(C)C)c(C(=O)N2CCCCC2CO)cc(-c2nc(-c3ccc(Cl)cc3)cs2)c1=O (stereo not drawn) [Compound 312]
15 | 1 to 5 | 1 to 5 | – | – | CCc1cccc(CC)c1N1C(=O)C(c2nc(-c3ccc(Cl)cc3)cs2)CC(CN2CCNCC2)=C1CC(C)C (stereo not drawn) [Compound 617]
16 | 1 to 5 | 1 to 5 | – | – | CCc1cccc(CC)c1-n1c(CC(C)C)c(C(=O)N2CCNCC2)cc(-c2cccc(-c3ccc(Cl)cc3)n2)c1=O [Compound 310]
17 | 0.3 to 1 | < 0.3 | – | – | CCc1cccc(CC)c1-n1c(C(C)C)c(C(=O)N2CCNCC2)cc(-c2nc(-c3ccc(Cl)cc3)cs2)c1=O [Compound 86]
18 | > 20 | 5 to 20 | – | – | CC1(C)CC(=O)c2cc(-c3nc(-c4ccc(Cl)cc4)cs3)c(=O)n(C3CCCCC3)c2C1 [Compound 216]
19 | < 0.3 | < 0.3 | – | – | CCc1cccc(CC)c1-n1c(C(C)C)c(C(=O)N2CCN[C@@H](C(=O)O)C2)cc(-c2nc(-c3ccc(Cl)cc3)cs2)c1=O [Compound 28]
20 | 1 to 5 | 0.3 to 1 | – | – | CCc1cccc(C)c1-n1c2c(cc(-c3nc(-c4ccc(Cl)cc4)cs3)c1=O)C(=O)CC(C)(C)C2 [Compound 279]
21 | – | – | < 0.3 | < 0.3 | CCc1cccc(CC)c1-n1c(CC2CCCCC2)c(C(=O)N2CCNCC2)cc(-c2nc(-c3ccc(Cl)cc3)cs2)c1=O [Compound 612]
22 | < 0.3 | < 0.3 | – | – | CC(C)=Cc1c(C(=O)N2CCNCC2)cc(-c2nc(-c3ccc(Cl)cc3)cs2)c(=O)n1-c1ccccc1OC(C)C [Compound 399]
23 | 0.3 to 1 | < 0.3 | – | – | CCc1cccc(CC)c1-n1c(CC(C)C)c(C(=O)NC(C)CO)cc(-c2nc(-c3ccc(Cl)cc3)cs2)c1=O (stereo not drawn) [Compound 118]
24 | 0.3 to 1 | < 0.3 | – | – | CCc1cccc(CC)c1-n1c(CC(C)C)c(C(=O)N[C@@H](CO)c2ccccc2)cc(-c2nc(-c3ccc(Cl)cc3)cs2)c1=O [Compound 20]

Row | IC50 (IDH1 R132H; [1]) [µM] | IC50 (IDH1 R132C; [2]) [µM] | IC50 (IDH1 R132H; [3]) [µM] | IC50 (IDH1 R132C; [4]) [µM] | SMILES
25 | – | – | < 0.3 | < 0.3 | CCc1cccc(CC)c1-n1c(C=C(C)C)c(C(=O)N2CCNCC2)cc(-c2nc(-c3ccc(C(F)(F)F)cn3)cs2)c1=O [Compound 515]
26 | 1 to 5 | 1 to 5 | – | – | COc1cc(N)ccc1-n1c2c(cc(-c3nc(-c4ccc(Cl)cc4)cs3)c1=O)C(=O)CC(C)(C)C2 [Compound 95]
27 | 1 to 5 | < 0.3 | – | – | CCc1cccc(CC)c1-n1c(CC(C)C)c(C(=O)NC(CC)CO)cc(-c2nc(-c3ccc(Cl)cc3)cs2)c1=O (stereo not drawn) [Compound 196]
28 | < 0.3 | < 0.3 | – | – | CCc1cccc(CC)c1-n1c(C=C(C)C)c(C(=O)N2CCNC(C(F)(F)F)C2)cc(-c2nc(-c3ccc(Cl)cc3)cs2)c1=O (stereo not drawn) [Compound 396]
29 | – | – | < 0.3 | < 0.3 | CCc1cccc(CC)c1-n1c(C=C(C)C)c(C(=O)N2CCNCC2)cc(-c2nc(-c3ccc(OC4CC4)cc3)cs2)c1=O [Compound 605]
30 | > 20 | 5 to 20 | – | – | COc1ccc(OC)c(-n2c(=O)c(-c3nc(-c4ccc(Cl)cc4)cs3)cc3c(OC)cncc32)c1 [Compound 289]
31 | – | – | 5 to 20 | 1 to 5 | CCc1cccc(C)c1-n1c2c(cc(-c3nc(-c4ccccc4)cs3)c1=O)C(=O)CCC2 [Compound 543]
32 | < 0.3 | 0.3 to 1 | – | – | CCOc1ncc(C)cc1-n1c(C=C(C)C)c(C(=O)N2CCNCC2)cc(-c2nc(-c3ccc(C(F)F)nc3)cs2)c1=O [Compound 326]
33 | 1 to 5 | 0.3 to 1 | – | – | CCCSc1ccccc1-n1c2c(cc(-c3nc(-c4ccc(Cl)cc4)cs3)c1=O)C(=O)CC(C)(C)C2 [Compound 135]
34 | 1 to 5 | 0.3 to 1 | – | – | COc1ncccc1-n1c2c(cc(-c3nc(-c4ccc(Cl)cc4)cs3)c1=O)C(=O)CC(C)(C)C2 [Compound 661]
35 | – | – | < 0.3 | < 0.3 | CCc1cccc(CC)c1-n1c(CC(C)C)c(C(=O)N2CCNCC2)cc(-n2ccc(-c3ccc(Cl)cc3)n2)c1=O [Compound 452]
36 | 0.3 to 1 | 0.3 to 1 | – | – | Cc1cc(C#N)c(-n2c3c(cc(-c4nc(-c5ccc(Cl)cc5)cs4)c2=O)C(=O)CC(C)(C)C3)s1 [Compound 346]
37 | > 20 | > 20 | – | – | CCOC(=O)c1cc(-c2nc(-c3ccc(Cl)cc3)cs2)c(=O)n(-c2c(CC)cccc2CC)c1-c1ccccc1 [Compound 3]
38 | 1 to 5 | < 0.3 | – | – | CCc1cccc(CC)c1-n1c(CC(C)C)c(C(=O)N2CCC(CO)CC2)cc(-c2nc(-c3ccc(Cl)cc3)cs2)c1=O [Compound 94]
39 | – | – | < 0.3 | < 0.3 | CCc1ncc(F)cc1-n1c(C=C(C)C)c(C(=O)N2CCNCC2)cc(-c2nc(-c3ccc(Cl)cc3)cs2)c1=O [Compound 507]
40 | 0.3 to 1 | 1 to 5 | – | – | CC(C)=Cc1c(C(=O)N2CCNCC2)cc(-c2nc(-c3ccc(Cl)cc3)cs2)c(=O)n1-c1ccccc1 [Compound 341]
41 | – | – | < 0.3 | < 0.3 | CCc1cccc(CC)c1-n1c(C=C(C)C)c(C(=O)N2CCNCC2)cc(-c2nc(-c3ccc(C(F)(F)F)cc3)cs2)c1=O [Compound 581, 1-(2,6-diethylphenyl)-6-(2-methylprop-1-en-1-yl)-5-(piperazine-1-carbonyl)-3-(4-(4-(trifluoromethyl)phenyl)thiazol-2-yl)pyridin-2(1H)-one]
42 | 0.3 to 1 | < 0.3 | – | – | CCc1cccc(CC)c1-n1c(CC(C)C)c(C(=O)NCC(C)(C)O)cc(-c2nc(-c3ccc(Cl)cc3)cs2)c1=O [Compound 77]
43 | – | – | 5 to 20 | 5 to 20 | CN1CCN(Cc2cccc(-n3c4c(cc(-c5nc(-c6ccc(Cl)cc6)cs5)c3=O)C(=O)CC(C)(C)C4)c2)CC1 [Compound 445]
44 | – | – | 1 to 5 | 0.3 to 1 | CCc1cccc(CC)c1-n1c(CC(C)C)c(C(=O)N2CCNCC2)cc(-c2nc(/C=C/c3ccc(Cl)cc3)c(C)s2)c1=O [Compound 555]
45 | < 0.3 | < 0.3 | – | – | CCc1ccc(Cl)c(CC)c1-n1c(C=C(C)C)c(C(=O)N2CCNCC2)cc(-c2nc(-c3ccc(Cl)cc3)cs2)c1=O [Compound 666]
46 | 5 to 20 | 5 to 20 | – | – | CC1(C)CC(=O)c2cc(-c3nc(-c4ccc(Cl)cc4)cs3)c(=O)n(-c3cn[nH]c3)c2C1 [Compound 177]
47 | 0.3 to 1 | < 0.3 | – | – | CCc1cccc(CC)c1-n1c(CC(C)C)c(C(=O)N2CCNCC2(C)C)cc(-c2nc(-c3ccc(Cl)cc3)cs2)c1=O [Compound 274]
48 | < 0.3 | 0.3 to 1 | – | – | CCc1cccc(CC)c1-n1c(C)c(C(=O)N2CCNC[C@H]2C)cc(-c2nc(-c3ccc(Cl)cc3)cs2)c1=O [Compound 142]
